Test: Effects of the sterilization on GDP production
Assay type: physicochemical
Conditions: 4% solution in deionized water; sterilization at 121° C. for 15 minutes
Experimental: In this example, the inventors studied the influence of sterilization on the production of GDPs, namely 5-hydroxymethyl furaldehyde (5-HMF), furaldehyde and 3,4-dideoxyglucosone-3-ene (3,4-DGE), of solutions using various glucose polymers or glucose.
20 ml solutions containing 4% of each of the substances to be tested were prepared in deionized water. The GDP content was measured after sterilization at 121° C. for 15 minutes.
The 5-HMF and furaldehyde content was determined by liquid chromatography using 5-HMF standards (Merck—Ref. 8.206.78.001) or furaldehyde standards for the calibration respectively), and detection by UV spectrophotometry at 280 nm. For the chromatography, a column with a particle size of 9 μm, 8% crosslinking, an internal diameter of 7.8 mm and a length of 300 mm (HPX 87H column—Biorad—Ref. 125.0140) was used. The conditions were the following: eluent 5 mN H2SO4 […], flow rate of 0.8 ml/min.
The 3,4-DGE content was determined by liquid chromatography (using pyrazinecarboxamide (Sigma—Ref. P7136) for the calibration) and detection by UV spectrophotometry at 230 nm. For the chromatography, a column with a particle size of 5 μm, a pore size of 120 Å size, an internal diameter of 4.6 mm and a length of 15 cm (Supelcosil LC-18—Supelco—Ref. 58230) was used. The conditions were the following: elution solvent H2O/MeOH, flow rate of 1.0 ml/min.

## OC[C@H]1OC(O)[C@H](O)[C@@H](O)[C@@H]1O (stereo partly shown) [glucose, anhydrous dextrose]
  GDP content after sterilization (5-HMF, furaldehyde, 3,4-DGE): much higher than that of the glucose polymers

From US11498939B2, “Glucose polymers for peritoneal dialysis” (ROQUETTE FRERES, priority 2016, dated 2022)
